Experimental data as given in patent US20190300832A1, “METHOD AND KIT FOR EXPANDING CIRCULATING TUMOR CELLS IN VITRO” (Taipei Medical University, priority 2018, published 2019).

Columns and labels:
small cell lung cancer = test: Clinical treatment outcome of the patients the circulating tumor cells were taken from; assay type: in vivo, human; conditions: treated clinically
Source text: As can be known from FIG. 54, in the presence of cisplatin, etoposide, and Topotecan, the survival rate of the circulating tumor cells 21 derived the blood of the first patient is more than 85%, and there is no significant decrease compared with the control group Ctrl.
As can be known from FIG. 55, in the presence of cisplatin and topotecan, the survival rate of the expanded circulating tumor cells 21 from the second patient is less than 20%, and there is significant decrease compared with the control group Ctrl. […] In combination with the outcome where the patient is treated with cisplatin, etoposide, and Topotecan clinically, it can be further confirmed that the cisplatin and topotecan respond well to small cell lung cancer in the second patients, that is, have therapeutic effect.

[1] = test system: circulating tumor cells derived from patients with small cell lung cancer; test: CellTiter Luminescent cell viability of expanded circulating tumor cells treated with drugs; assay type: cell-based, human; conditions: expanded circulating tumor cells from the second small cell lung cancer patient; FIG. 55; result in words
Procedure: In some embodiments, the preparation of the cell solution can be performed as follows. 5 ml of blood is sampled respectively patients having breast cancer, pancreatic cancer, and small cell lung cancer. 15 ml of Ficoll-Paque is added to a Leucosep™ centrifuge tube and centrifuged. The blood is diluted in phosphate buffered saline (PBS) and transferred to the Leucosep™ centrifuge tube, followed by centrifugation. After centrifugation, the supernatant in the Leucosep™ centrifuge tube is removed, and the retained lower solution is a monocyte phase. A circulating tumor cell enriched antibody mixture (RosetteSep™ CTC Enrichment Cocktail Containing AntiCD56) is added to the monocyte phase, and mixed at room temperature. After mixing, a PBS buffer containing 2% (v/v) Fetal Bovine Serum (FSB) is added and mixed to give a monocyte solution. Also, the monocyte solution is added to Ficoll-Paque and centrifuged at room temperature. […]
According to the above procedure, the circulating tumor cells 21 are isolated from the blood of two patients with small cell lung cancer and cultured. […] The cell viability was measured by CellTiter Luminescent cell viability and the survival rate is calculated by the following formula:
Cell survival rate (%)=(luminescence density in the treated group/luminescence density in the control group)×100%. […]

SMILES | Clinical therapeutic effect on small cell lung cancer (small cell lung cancer; first patient) | Clinical therapeutic effect on small cell lung cancer (small cell lung cancer; second patient) | Cell survival rate compared with control group [1]
CC[C@@]1(O)C(=O)OCc2c1cc1n(c2=O)Cc2cc3c(CN(C)C)c(O)ccc3nc2-1 [Topotecan] | no significant therapeutic effect | respond well | –
N.N.[Cl][Pt][Cl] [cisplatin] | no significant therapeutic effect | respond well | –
COc1cc([C@@H]2c3cc4c(cc3[C@@H](O[C@@H]3O[C@@H]5CO[C@@H](C)O[C@H]5[C@H](O)[C@H]3O)[C@H]3COC(=O)[C@H]23)OCO4)cc(OC)c1O [etoposide] | no significant therapeutic effect | – | lower than the control group Ctrl
